EC50 data for 3 molecules are collected here from BindingDB's records for doi:10.1021/jm2013826 (2012).

The target of the test is Integrin alpha-IIb/beta-3 (Homo sapiens, UniProt P08514+P05106). Kind of test: Inhibition of integrin alpha2bbeta3-mediated platelet aggregation in human TRAP-6-activated whole blood for 6 mins by impedence-based aggregometry.
Integrin alpha-IIb/beta-3, sequence (P05106 27-788 limits assumed): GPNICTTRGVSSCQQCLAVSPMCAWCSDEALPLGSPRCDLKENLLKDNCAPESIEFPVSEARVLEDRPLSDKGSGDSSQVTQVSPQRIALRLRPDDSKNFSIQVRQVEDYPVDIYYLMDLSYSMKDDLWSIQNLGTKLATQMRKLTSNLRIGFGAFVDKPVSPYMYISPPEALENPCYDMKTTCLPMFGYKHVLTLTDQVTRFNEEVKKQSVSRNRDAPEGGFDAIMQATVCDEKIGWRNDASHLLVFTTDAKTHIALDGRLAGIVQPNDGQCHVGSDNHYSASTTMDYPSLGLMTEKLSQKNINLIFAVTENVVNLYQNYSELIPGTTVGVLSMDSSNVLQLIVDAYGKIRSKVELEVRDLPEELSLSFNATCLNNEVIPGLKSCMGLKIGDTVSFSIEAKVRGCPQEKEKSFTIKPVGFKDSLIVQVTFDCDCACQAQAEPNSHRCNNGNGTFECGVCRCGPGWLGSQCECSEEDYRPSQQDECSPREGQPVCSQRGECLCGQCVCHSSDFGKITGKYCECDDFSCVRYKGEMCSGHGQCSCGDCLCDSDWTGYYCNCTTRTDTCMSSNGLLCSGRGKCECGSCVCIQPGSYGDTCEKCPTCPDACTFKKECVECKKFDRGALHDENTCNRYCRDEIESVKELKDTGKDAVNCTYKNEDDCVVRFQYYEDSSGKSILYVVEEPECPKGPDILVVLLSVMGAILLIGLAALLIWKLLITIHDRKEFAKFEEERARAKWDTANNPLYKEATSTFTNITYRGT
Integrin alpha-IIb/beta-3, sequence (P08514 32-887 limits assumed): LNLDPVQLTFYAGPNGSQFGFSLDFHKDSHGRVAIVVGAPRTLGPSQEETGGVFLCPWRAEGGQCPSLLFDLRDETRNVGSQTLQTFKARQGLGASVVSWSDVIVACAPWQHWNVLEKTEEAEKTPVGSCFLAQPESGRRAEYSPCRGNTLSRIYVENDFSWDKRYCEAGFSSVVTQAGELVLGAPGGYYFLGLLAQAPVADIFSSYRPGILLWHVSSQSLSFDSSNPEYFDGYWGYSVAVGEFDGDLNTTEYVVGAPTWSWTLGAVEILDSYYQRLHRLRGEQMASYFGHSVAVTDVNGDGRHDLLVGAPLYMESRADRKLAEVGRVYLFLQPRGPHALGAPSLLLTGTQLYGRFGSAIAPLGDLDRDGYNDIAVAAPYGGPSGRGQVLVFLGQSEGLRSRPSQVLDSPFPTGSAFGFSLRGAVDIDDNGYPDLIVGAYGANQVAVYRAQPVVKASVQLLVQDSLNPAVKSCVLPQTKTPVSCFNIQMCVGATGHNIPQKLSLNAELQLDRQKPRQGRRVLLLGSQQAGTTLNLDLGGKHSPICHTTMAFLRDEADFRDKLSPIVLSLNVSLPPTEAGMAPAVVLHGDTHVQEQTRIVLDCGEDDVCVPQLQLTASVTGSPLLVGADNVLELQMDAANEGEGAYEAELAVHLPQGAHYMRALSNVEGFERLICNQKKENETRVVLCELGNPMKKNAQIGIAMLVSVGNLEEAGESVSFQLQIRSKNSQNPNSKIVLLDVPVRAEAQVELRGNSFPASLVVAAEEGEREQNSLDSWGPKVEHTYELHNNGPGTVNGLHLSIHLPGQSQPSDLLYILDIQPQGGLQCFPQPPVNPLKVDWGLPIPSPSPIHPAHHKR
Integrin alpha-IIb/beta-3, sequence (P08514 891-1039 limits assumed): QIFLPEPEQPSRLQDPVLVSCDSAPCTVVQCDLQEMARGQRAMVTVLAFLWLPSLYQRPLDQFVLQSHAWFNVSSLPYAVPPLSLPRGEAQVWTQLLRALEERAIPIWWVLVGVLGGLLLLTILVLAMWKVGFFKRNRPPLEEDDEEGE

Regarding `COP(=O)(O)[C@H](CNC(=O)c1ccc(OCCC2CCNCC2)cc1)NS(=O)(=O)c1ccccc1`, a half-maximal effect (EC50) was put at 40.8 nM.

For the molecule `O=C(NC[C@H](NS(=O)(=O)c1ccccc1)P(=O)(O)O)c1ccc(OCCC2CCNCC2)cc1`, the EC50 came to 276 nM.

In turn, `O=C(NC[C@H](NS(=O)(=O)c1ccccc1)[PH](=O)O)c1ccc(OCCC2CCNCC2)cc1` gave an EC50 of 7.8 nM.
